Laboratory results taken from ChEMBL document CHEMBL3885861, “Open TG-GATES”.

Organism: Rattus norvegicus
Test: Open TG-GATES - Regimen: Single
Format: toxicity, organism-based, Sprague-Dawley
Set-up: regimen Single, gender Male, age 6 weeks
Details: in vivo, po, 1000 mg/kg, route gavage, dose level High; for APTT / Bas / Eos / Fbg / Hb / Ht / Lym / MCHC / MCV / Mono / Neu / PT / Plat / RBC / Ret / WBC: tissue Blood; for KIDNEY_L / KIDNEY_R / KIDNEY_TOTAL: tissue Kidney; for LIVER: tissue Liver

## CN(C)C(=N)N=C(N)N [METFORMIN]
3 h
  APTT: 16.6 s
  Bas: 0.2%
  Eos: 1%
  Fbg: 250.4 mg/dL
  Hb: 13.4 g/dL
  Ht: 40.4%
  Lym: 78.6%
  MCHC: 33.1%
  MCV: 64 fL
  Mono: 4.2%
  Neu: 15.2%
  PT: 12.2 s
  Plat: 118.4 x10_4/uL
  RBC: 631.8 x10_4/ul
  Ret: 9.7%
  WBC: 85.9 x10_2/uL
  KIDNEY_L: 0.9 g
  KIDNEY_R: 0.9 g
  KIDNEY_TOTAL: 1.8 g
  LIVER: 8.2 g
3 h, tissue Plasma
  ALP: 1303.6 IU/L
  ALT: 60.8 IU/L
  AST: 79.2 IU/L
  BUN: 8.8 mg/dL
  CRE: 0.2 mg/dL
  Ca: 11.1 mg/dL
  Cl: 106.6 meq/L
  DBIL: 0.008 mg/dL
  GLC: 149 mg/dL
  IP: 9.3 mg/dL
  K: 3.8 meq/L
  LDH: 63 IU/L
  Na: 141.4 meq/L
  PL: 130.2 mg/dL
  RALB: 2.6 g/dL
  TBIL: 0.038 mg/dL
  TG: 47 mg/dL
  TP: 5.4 g/dL
  gamma-GTP: 1 IU/L
6 h
  TERMINAL_BW: 201.2 g
  APTT: 17.8 s
  Bas: 0%
  Eos: 1%
  Fbg: 259.6 mg/dL
  Hb: 13 g/dL
  Ht: 39%
  Lym: 72.4%
  MCHC: 33.2%
  MCV: 64.7 fL
  Mono: 3.4%
  Neu: 22.4%
  PT: 12.3 s
  Plat: 118.4 x10_4/uL
  RBC: 602.6 x10_4/ul
  Ret: 9.9%
  WBC: 87.3 x10_2/uL
  KIDNEY_L: 0.8 g
  KIDNEY_R: 0.8 g
  KIDNEY_TOTAL: 1.7 g
  LIVER: 7.3 g
6 h, tissue Plasma
  ALP: 996 IU/L
  ALT: 104.2 IU/L
  AST: 88.4 IU/L
  BUN: 9.2 mg/dL
  CRE: 0.1 mg/dL
  Ca: 11.1 mg/dL
  Cl: 106.2 meq/L
  DBIL: 0.004 mg/dL
  GLC: 137 mg/dL
  IP: 10 mg/dL
  K: 3.7 meq/L
  LDH: 52 IU/L
  Na: 140.8 meq/L
  PL: 143.4 mg/dL
  RALB: 2.5 g/dL
  TBIL: 0.05 mg/dL
  TC: 86.2 mg/dL
  TG: 20.6 mg/dL
  TP: 5.2 g/dL
  gamma-GTP: 1 IU/L
9 h
  TERMINAL_BW: 199.9 g
  APTT: 16.4 s
  Bas: 0.2%
  Eos: 1%
  Fbg: 251.6 mg/dL
  Hb: 13 g/dL
  Ht: 38.9%
  Lym: 77%
  MCHC: 33.2%
  MCV: 65.9 fL
  Mono: 3%
  Neu: 18.6%
  PT: 12.5 s
  Plat: 112.8 x10_4/uL
  RBC: 591.6 x10_4/ul
  Ret: 10.3%
  WBC: 89.9 x10_2/uL
  KIDNEY_L: 0.8 g
  KIDNEY_R: 0.8 g
  KIDNEY_TOTAL: 1.7 g
  LIVER: 6.8 g
9 h, tissue Plasma
  ALP: 1282.4 IU/L
  ALT: 84.4 IU/L
  AST: 83.2 IU/L
  BUN: 10 mg/dL
  CRE: 0.1 mg/dL
  Ca: 10.9 mg/dL
  Cl: 107.4 meq/L
  DBIL: 0.008 mg/dL
  GLC: 113.8 mg/dL
  IP: 10.6 mg/dL
  K: 3.7 meq/L
  LDH: 46 IU/L
  Na: 142.2 meq/L
  PL: 138.6 mg/dL
  RALB: 2.5 g/dL
  TBIL: 0.042 mg/dL
  TG: 20.6 mg/dL
  TP: 5.1 g/dL
  gamma-GTP: 1.2 IU/L
24 h
  TERMINAL_BW: 202.6 g
  APTT: 15.2 s
  Bas: 0%
  Eos: 1%
  Fbg: 244.6 mg/dL
  Hb: 12.8 g/dL
  Ht: 38.3%
  Lym: 76.2%
  MCHC: 33.5%
  MCV: 64.5 fL
  Mono: 3.6%
  Neu: 18.6%
  PT: 12.6 s
  Plat: 114.2 x10_4/uL
  RBC: 593.4 x10_4/ul
  Ret: 9.4%
  WBC: 98.2 x10_2/uL
  KIDNEY_L: 0.9 g
  KIDNEY_R: 0.9 g
  KIDNEY_TOTAL: 1.8 g
  LIVER: 8.8 g
24 h, tissue Plasma
  ALP: 1502.2 IU/L
  ALT: 42.6 IU/L
  AST: 74.6 IU/L
  BUN: 15.4 mg/dL
  CRE: 0.2 mg/dL
  Ca: 11.3 mg/dL
  Cl: 104.2 meq/L
  DBIL: 0.012 mg/dL
  GLC: 182.4 mg/dL
  IP: 8.8 mg/dL
  K: 4.3 meq/L
  LDH: 57 IU/L
  Na: 140.8 meq/L
  PL: 135.4 mg/dL
  RALB: 2.5 g/dL
  TBIL: 0.038 mg/dL
  TG: 53.2 mg/dL
  TP: 5.4 g/dL
  gamma-GTP: 1 IU/L
